According to ChEMBL document CHEMBL2169878 (J Med Chem, 2012):

How the values were obtained:
Plasmodium falciparum [1] = assay: Antiplasmodial activity against chloroquine-resistant Plasmodium falciparum K1 infected in human erythrocytes assessed as inhibition of [3H]hypoxanthine incorporation incubated for 48 hrs prior to [3H]hypoxanthine addition measured after 48 hrs by liquid scintillation counting; format: functional, organism-based
Plasmodium falciparum [2] = assay: Antiplasmodial activity against chloroquine-sensitive Plasmodium falciparum D10 infected in human RBC after 72 hrs by parasite lactate dehydrogenase assay; format: functional, organism-based; conditions: D10, 72 h
[3] = Cytotoxicity against mouse NIH3T3 cells after 24 hrs by neutral red dye uptake assay; format: cell-based; conditions: read-out: TC50
Salmonella typhimurium [4] = assay: Mutagenicity against Salmonella typhimurium TA100 assessed as revertants at 4 uM incubated for 90 mins followed by drug washout measured after 2 days relative to positive control; format: toxicity, organism-based; conditions: salmonella enterica subsp. enterica serovar typhimurium, 1.5 h
Salmonella typhimurium [5] = assay: Mutagenicity against Salmonella typhimurium TA100 assessed as revertants at 2 uM incubated for 90 mins followed by drug washout measured after 2 days relative to positive control; format: toxicity, organism-based; conditions: salmonella enterica subsp. enterica serovar typhimurium
Salmonella typhimurium [6] = assay: Mutagenicity against Salmonella typhimurium TA100 assessed as revertants at 35 uM incubated for 90 mins followed by drug washout measured after 2 days relative to positive control; format: toxicity, organism-based; conditions: salmonella enterica subsp. enterica serovar typhimurium
Plasmodium falciparum [7] = assay: Antiplasmodial activity against chloroquine-sensitive Plasmodium falciparum NF54 infected in human erythrocytes assessed as inhibition of [3H]hypoxanthine incorporation incubated for 48 hrs prior to [3H]hypoxanthine addition measured after 48 hrs by liquid scintillation counting; format: functional, organism-based
Salmonella typhimurium [8] = assay: Mutagenicity against Salmonella typhimurium TA100 assessed as revertants at 9 uM incubated for 90 mins followed by drug washout measured after 2 days relative to positive control; format: toxicity, organism-based; conditions: salmonella enterica subsp. enterica serovar typhimurium, 1.5 h
Salmonella typhimurium [9] = assay: Mutagenicity against Salmonella typhimurium TA98 assessed as revertants at 9 uM incubated for 90 mins followed by drug washout measured after 2 days relative to positive control; format: toxicity, organism-based; conditions: salmonella enterica subsp. enterica serovar typhimurium
Salmonella typhimurium [10] = assay: Mutagenicity against Salmonella typhimurium TA98 assessed as revertants at 2 uM incubated for 90 mins followed by drug washout measured after 2 days relative to positive control; format: toxicity, organism-based; conditions: salmonella enterica subsp. enterica serovar typhimurium, 1.5 h
Salmonella typhimurium [11] = assay: Mutagenicity against Salmonella typhimurium TA98 assessed as revertants at 4 uM incubated for 90 mins followed by drug washout measured after 2 days relative to positive control; format: toxicity, organism-based; conditions: salmonella enterica subsp. enterica serovar typhimurium
Plasmodium falciparum [12] = assay: Resistance ratio of IC50 for chloroquine-resistant Plasmodium falciparum K1 to IC50 for chloroquine-sensitive Plasmodium falciparum NF54; format: functional
Plasmodium falciparum [13] = assay: Resistance ratio of IC50 for chloroquine-resistant Plasmodium falciparum W2 to IC50 for chloroquine-sensitive Plasmodium falciparum D10; format: functional
Salmonella typhimurium [14] = assay: Mutagenicity against Salmonella typhimurium TA100 assessed as revertants at 70 uM incubated for 90 mins followed by drug washout measured after 2 days relative to positive control; format: toxicity, organism-based; conditions: salmonella enterica subsp. enterica serovar typhimurium
Salmonella typhimurium [15] = assay: Mutagenicity against Salmonella typhimurium TA98 assessed as revertants at 35 uM incubated for 90 mins followed by drug washout measured after 2 days relative to positive control; format: toxicity, organism-based; conditions: salmonella enterica subsp. enterica serovar typhimurium, 1.5 h
[16] = Cytotoxicity against human HepG2 cells after 24 hrs by neutral red dye uptake assay; format: cell-based; conditions: read-out: TC50
Salmonella typhimurium [17] = assay: Mutagenicity against Salmonella typhimurium TA98 assessed as revertants at 70 uM incubated for 90 mins followed by drug washout measured after 2 days relative to positive control; format: toxicity, organism-based; conditions: salmonella enterica subsp. enterica serovar typhimurium
Salmonella typhimurium [18] = assay: Mutagenicity against Salmonella typhimurium TA98 assessed as revertants at 18 uM incubated for 90 mins followed by drug washout measured after 2 days relative to positive control; format: toxicity, organism-based; conditions: salmonella enterica subsp. enterica serovar typhimurium
Plasmodium falciparum [19] = assay: Antiplasmodial activity against chloroquine-resistant Plasmodium falciparum W2 infected in human RBC after 72 hrs by parasite lactate dehydrogenase assay; format: functional, organism-based; conditions: W2, 72 h
Salmonella typhimurium [20] = assay: Mutagenicity against Salmonella typhimurium TA100 assessed as revertants at 18 uM incubated for 90 mins followed by drug washout measured after 2 days relative to positive control; format: toxicity, organism-based; conditions: salmonella enterica subsp. enterica serovar typhimurium

## Clc1ccc(C(Nc2ccnc3cc(Cl)ccc23)c2ccc(Cn3ccnc3)cc2)cc1 (racemic)
Plasmodium falciparum [1]
  IC50: 22 nM
Plasmodium falciparum [2]
  IC50: 30 nM
[3]
  CC50 at 24 h: 35000 nM
Salmonella typhimurium [4]
  Activity: 6%
Salmonella typhimurium [5]
  Activity: 6%
Salmonella typhimurium [6]
  Activity: 2%
Plasmodium falciparum [7]
  IC50: 18 nM
Salmonella typhimurium [8]
  Activity: 7%
Salmonella typhimurium [9]
  Activity: 0%
Salmonella typhimurium [10]
  Activity: 0%
Salmonella typhimurium [11]
  Activity: 7%
Plasmodium falciparum [12]
  Ratio IC50: 1.2
Plasmodium falciparum [13]
  Ratio IC50: 1.9
Salmonella typhimurium [14]
  Activity: 2%
Salmonella typhimurium [15]
  Activity: 3%
[16]
  CC50 at 24 h: 22000 nM
Salmonella typhimurium [17]
  Activity: 2%
Salmonella typhimurium [18]
  Activity: 3%
Plasmodium falciparum [19]
  IC50: 57 nM
Salmonella typhimurium [20]
  Activity: 5%
